These results are taken from EP2918282A1, “Pharmaceutical composition for the treatment of virus diseases, such as flu” (OOO "CytoNIR", priority 2014, dated 2015).

The test has as its system Grippevirus A/Vladivostok/2/09 (H1N1). In words: Survival of mice infected with a lethal dose of influenza virus, peroral treatment for 5 days. The format is in vivo, Mäuse. The note with it: virus strain resistant to Oseltamyvir; 30 mg/kg. The text has this: Die Wirksamkeit des Mittels wurde an einem Modell der Überlebensfähigkeit von angesteckten Versuchstieren geprüft. Die Versuchstiere wurden mit einer tödlichen Dosis des Grippevirus A/Vladivostok/2/09 (H1N1) angesteckt. Während der Forschung wurde das erfindungsgemäße Mittel 5 Tage lang peroral verabreicht.
Als Versuchstiere wurden weiße männliche Auszucht-Mäuse mit einem Körpergewicht von 16 - 18 g aus der Aufzuchtstation Rappolovo der Russischen Akademie der medizinischen Wissenschaften verwendet. Vor der Prüfung wurden die Versuchstiere einer Quarantäne in einem Vivarium im Laufe einer Woche unterzogen. Die Versuchstiere wurden unter genormten Klima-Bedingungen mit ausgewogener Fütterung gehalten. Jede Gruppe enthielt je 30 Versuchstiere.
Um eine versuchsmäßige Grippe-Infektion zu simulieren, wurde ein bestimmter Virusstamm eingesetzt. Die Versuchstiere wurden mit dem A/Vladivostok/2/09 (H1N1)-Virus in Mengen von 1 und 10 DL50 intranasal angesteckt.
Die Behandlung der angesteckten Mäuse wurde 24 Stunden nach der Ansteckung begonnen. Die Präparate wurden intragastrisch mittels einer Sonde verabreicht. Bei diesen Präparaten handelte es sich um eine Lösung in einer physiologischen Kochsalzlösung. Die Dosis des Arzneimittels wurde pro ein kg des Körpergewichts des Tieres berechnet. Die Behandlung wurde im Laufe von 5 Tagen vorgenommen. […]

For `CCOC(=O)C1=C[C@@H](OC(CC)CC)[C@H](NC(C)=O)[C@@H](N)C1` [Tamiflu, Oseltamyvir], the Schutzsteigerung result is listed as “keine zuverlässige Schutzsteigerung”.
